Experimental data from article PMC5770468, “Cardiac glycoside/aglycones inhibit HIV-1 gene expression by a mechanism requiring MEK1/2-ERK1/2 signaling” (Scientific Reports, 2018).
Like-named read-outs stand apart in the source and are kept apart here.

Columns and labels:
[1] = system: HIV-1 (Gag) gene expression; test: HIV-1 (Gag) gene expression in HeLa rtTA-HIV-ΔMls cells, p24CA ELISA dose response; type: cell-based, HIV-1 (LAI)
Description: Drug/compounds were tested for effects on HIV-1 gene expression using inducible Tet-ON HIV-1 cell lines [HeLa rtTA-HIV-ΔMls or rtTA-HIV(Gag-GFP)] containing a HIV-1 (LAI) provirus activatable by Dox or tetracycline transactivator (tTA)[69]. The rtTA-HIV-ΔMls provirus was modified and used as previously reported[9]–[11],[70]. The rtTA-HIV(Gag-GFP) provirus was generated by deletion of the PR and RT coding regions within pol and insertion of GFP to the 3′ of gag, creating GFP fused to the C-terminal of Gag. After 4 h of drug/compound treatment, HIV-1 gene expression was activated with Dox (2 μg/mL) or tTA (described below). Equal concentrations of DMSO were present in each experiment. After ~20 h, cells and media were harvested to monitor the effects of drug/compound treatments as described below. HIV-1 gene expression was quantified via p24^CA ELISA or monitoring Gag-GFP fluorescence in cells as described below. In parallel, cell viability of treatments were assessed by XTT assay (Sigma-Aldrich, #TOX2).
Drug/compounds were purchased from Sigma (Digoxin, #D6003; Digitoxin, #D5878; Digoxigenin, #D9026; Digitoxigenin, #D9404; Ouabain, #O3125; Bufalin, #S961175; Cinobufagin, #C1272; and Anisomycin, #A9789) and derivatives of convallatoxin were synthesized from C. Lingwood’s lab of the Hospital for Sick Children (convallatoxin, peruvoside, RIDK-34, -36, -20, -21, -27, and -28). […] Recombinant human EGF was from Invitrogen (#PHG0314). Chemical structures were drawn in ChemSketch (ACD/Labs).
To monitor HIV-1 gene expression or replication, Gag release into cell culture supernatants were assayed by ELISA using a p24^CA antigen capture assay kit (AIDS & Cancer Virus Program, NCI-Frederick, Frederick, MD USA). Media harvested from HIV clinical isolates were diluted ~10 fold (or as necessary) prior to performing this assay. For analysis of HIV-1 and SR protein expression (and phosphorylation states with calf intestinal alkaline phosphatase treatments), cells were lysed and analyzed by western blot as previously outlined. Phosphatase inhibitors (e.g. 10 mM sodium fluoride, 2 mM sodium orthovanadate) were added to solutions requiring phospho protein analyses. An anti-chicken NKA antibody (α6F, #a6F–c, Developmental Studies Hybridoma Bank, The University of Iowa, contributed by Douglas M. Fambrough, The Johns Hopkins University) was used as specified to detect NKA α1- and β1-subunits across species. […] Activation of MAPKs was determined by western blot quantitation and calculation of phospho/total protein levels. […] Images were exported as TIF files for assembly, rotation, and equal brightness/contrast adjustments in ImageJ or Microsoft Powerpoint. Some lanes were cropped and rearranged from the same blot/gel as indicated. In representative gel/blot sets, samples were electrophoresed from the same experiment as controls, resolved simultaneously on identically cast gel(s), transferred to same PVDF (by either wet electrophoretic or by Bio-Rad Trans-Blot® Turbo Transfer System), and detected at same time. Marked locations of molecular weight (MW) standards are shown on the left as a reference. […] SUnSET analysis of total cellular protein synthesis. HeLa rtTA-HIV-ΔMls cells were cultured in the presence/absence of compound and pathway inhibitor (if any) and Dox induced for ~24 h as already described, then treated with puromycin (10 μg/mL, Sigma-Aldrich, #P8833) for 30 min to label nascent proteins prior to harvest. As control, 10 µM of cycloheximide (Sigma-Aldrich, #C4849) was added to some cells prior to puromycin treatment. Cells were subsequently washed, whole cell lysates prepared, and proteins quantified by western blot using an anti-puromycin antibody (EMD Millipore, #anti-12D10) as described above. Transfection of plasmid DNA into cells.

HIV-1 US RNAs = test: FISH localization of HIV-1 US RNA in HeLa rtTA-HIV(Gag-GFP) cells; type: cell-based; settings: ~IC90s of CSs
Source text: Figure 4 CSs suppress HIV-1 gene expression by altering viral RNA processing. […] (a,b) CSs induce oversplicing of HIV-1 RNAs (n ≥ 3, mean, s.e.m.). (a) Diagram of the primer positions (arrow heads) used for qRT-PCR. (b) Graph of the relative amount of US (black), SS (white), and MS (gray) HIV-1 RNAs in cells treated with various CSs. (c) Nuclear export of HIV-1 US RNAs in cells is altered by CSs (representative n ≥ 4). HIV-1 US RNAs were localized by FISH after treating HeLa rtTA-HIV(Gag-GFP) cells as described above but with ~IC90s of CSs. Nuclei were stained by DAPI and images captured at 630 × magnification. (d) CSs induce differential post-translational modification of SR proteins (representative n ≥ 3). SRp20, Tra2β, and tubulin were analyzed by immunoblot of HeLa rtTA-HIV-ΔMls cells treated as described above except cells of this representative blot were treated 3 d with ~IC50s of CSs. (g) Lanes were cropped and assembled from the same gel/blot per box (Supplementary Fig. S4d).
RNA was extracted from cells, reverse transcribed, and resulting cDNAs subject to qRT-PCR quantification of HIV-1 mRNAs as previously described except reactions used iTaq™ Universal SYBR® Green Supermix (Bio-Rad, #172-5120) run on a Bio-Rad CFX384 Touch™ Real-Time PCR Detection System and analyzed with CFX Manager™[9]. NKA α1, 2, and 3 subunits were detected by published primers, amplified by iTaq using the same cycling temperature and times previously described for HIV-1 US/MS cDNAs except α1, 2, and 3 annealing temperatures were 61 °C[9],[73]. All data was normalized to β-actin as internal loading control. Primers sequences for NKA α subunits were as follows: α1 forward (5′-[…] -3′), α1 reverse (5′- […] -3′), α2 forward (5′-[…]-3′), α2 reverse (5′-[…]-3′), α3 forward (5′-[…]-3′), and α3 reverse (5′-GGGCAGACTCAGACGCATC-3′). Monitoring the subcellular localization of HIV-1 genomic RNA. HeLa rtTA-HIV(Gag-GFP) cells were seeded on cover slips, treated with drug/compound, and processed for FISH to detect HIV-1 US RNAs using Stellaris™ probes (Biosearch Technologies) as previously detailed[10],[11].

HeLa rtTA-HIV-ΔMls cells = test: In vitro therapeutic index (CC20/IC50) in HeLa rtTA-HIV-ΔMls cells; type: cell-based, human
Source text: Without median toxic dose (TD50) and half-maximal effective concentration (EC50) data available to calculate TIs (in vivo) from HIV patients treated with CSs, we determined the following TIs for each cell type treated with a CS (summarized in Supplementary Table S1): in vitro TIs from HeLa rtTA-HIV-ΔMls cells using CC20/IC50 (instead of CC50/IC50), in vitro TIs from 24ST1NLESG cells using CC50/IC50, and ex vivo TIs from HIV-infected PBMCs using CC50/IC50 (at day 14 of culture approximated from available cell viability trends for CC50s of Supplementary Fig. S13 and inferred near maximal IC50s).
Supplementary Table S1. Comparison of the in vitro (IVTI) and ex vivo therapeutic indices (EVTIs) of CSs and their impact on the expression of essential HIV-1 proteins.
Notes: data for CC20, CC50, and IC50s for each drug/compound were estimated from dose response curves in Figures 1-2, Supplementary Table S1, Supplementary Figures S2, S5, and S13, and Wong et al.
">" means the estimate has not been accurately determined but is greater than the highest concentration […]
"( )" indicates preliminary data that was not shown. aCC20 instead of CC50 was estimated from dose response curves and used for calculation of IVTIs. bCells were treated at ~IC90of a CS.
(1 picture or pasted object on this page, not shown here)

C[C@]12CC[C@H](O)C[C@H]1CC[C@@H]1[C@@H]2CC[C@]2(C)[C@@H](c3ccc(=O)oc3)CC[C@]12O [Bufalin] was tested, and the “IC50 lower for HIV-1 inhibition compared to digoxin” value [1] was 9 fold, the “better anti-HIV-1 activity than digoxin” value [1] was 9 fold and the IC50 ([1]; Human immunodeficiency virus 1, HeLa, read-out: IC50 (nM) HeLa rtTA-HIV-ΔMls) was 5 nM. The IC90 ([1]; Human immunodeficiency virus 1, HeLa, read-out: IC90, HIV-1 (Gag) gene expression) was 0.015 µM, the IC80 ([1]; Human immunodeficiency virus 1, HeLa, read-out: ~IC80 (approximate concentration used in experiments)) was ~0.011 µM and the IC90 ([1]; Human immunodeficiency virus 1, HeLa, read-out: ~IC90 (approximate concentration used in experiments)) was ~0.015 µM. The “HIV-1 US RNA subcellular localization” value (HIV-1 US RNAs) was “almost exclusively within the nucleus” and the “better in vitro TI than digoxin” value (HeLa rtTA-HIV-ΔMls cells) was 9 fold.
